According to ChEMBL document CHEMBL1132400, “A combinatorial approach to the identification of dipeptide aldehyde inhibitors of beta-amyloid production” (J Med Chem, 1999):
pIC50: −log10 of the molar value.

How the values were obtained:
Type in all cases: functional, cell-based
[1] = test system: N9; experiment: Compound was tested for the inhibition of 1-42 beta-Amyloid Production in N9 cell line expressing beta-APP (wascreated by transfecting the human cDNA encoding beta-APP 695) by using immunoprecipitation assay
[2] = test system: N9; experiment: Compound was tested for the inhibition of total beta-Amyloid Production in N9 cell line expressing beta-APP (wascreated by transfecting the human cDNA encoding beta-APP 695) by using enzyme-linked immunosorbent assay
[3] = test system: N9; experiment: Compound was tested for the inhibition of total beta-Amyloid Production in N9 cell line expressing beta-APP (wascreated by transfecting the human cDNA encoding beta-APP 695) by using immunoprecipitation assay
[4] = test system: N9; experiment: Compound was tested for the inhibition of 1-40 beta-Amyloid Production in N9 cell line expressing beta-APP (wascreated by transfecting the human cDNA encoding beta-APP 695) by using immunoprecipitation assay
[5] = test system: N9; experiment: Compound was tested for the inhibition of beta-Amyloid Production in N9 cell line expressing beta-APP; details: Homo sapiens

pIC50 [1]: < 4.30
pIC50 [2]: 5.00
pIC50 [3]: 4.82
pIC50 [4]: 4.66
pIC50 [5]: 5.02
SMILES: CCC(C)[C@H](NC(=O)/C=C/c1cc(OC)cc(OC)c1)C(=O)N[C@H](C=O)CC(C)C (stereo not given in full)
